In article PMC7179022, “Carvacrol Prodrugs with Antimicrobial Activity Loaded on Clay Nanocomposites” (Materials, 2020):
≈ marks a conversion by molar mass, not a printed value.

Experiments:
[1] = Chemical conversion of carvacrol prodrugs to carvacrol in water and buffer solutions (HPLC); format: physicochemical; details: 37 °C, 1 mg/mL, mean (±SD) of three experiments
Experimental: We removed 400 μL samples at various time intervals and drug concentrations were analyzed by high performance liquid chromatography (HPLC) using an Agilent 1260 Infinity II HPLC (Agilent, Santa Clara, CA, USA) consisting of quaternary pump, autosampler, column oven, and UV-Vis diode-array detector. Samples were run in an Agilent Poroshell 120 EC-C18 column (4 μm, 4.60 × 150 mm; Agilent, Santa Clara, CA, USA) maintained at 25 °C. The mobile phase consisted of a mixture 50:50 v/v H2O MilliQ (Merck KGaA, Darmstadt, Germany) and CH3CN with 0.1% trifluoracetic acid (TFA) flushing at an isocratic flow rate of 1 mL/min. The detector was set at a wavelength of 270 nm. Data were processed using LC Open LAB HPLC 1260 software (Agilent, Santa Clara, CA, USA). Results are reported as relative difference (RD%) of prodrugs conversion, calculated with Equation (1):(1) RD%=Ci− Cf/Ci ×100 where Ci is the prodrug concentration at zero time point and Cf is the prodrug concentration at the end of incubation.

[2] = In vitro release studies of WSCP1-3 loaded-VHS in a dissolution tester; format: physicochemical; details: 37 °C, from prodrug-VHS nanohybrid
Experimental: Release studies were conducted in a dissolution tester (Sotax AT7, SOTAX Group, Aesch, Switzerland). […] During the test, temperature was maintained constant at 37 °C and agitation was achieved using a paddle system set to 100 rpm. At predetermined time intervals, 5 mL of dissolution medium was withdrawn, filtered with 0.45 μm Millipore^© membranes, and replaced with an equal volume of the corresponding fresh dissolution medium. […] Va is the volume picked up; and Ci is the concentration of drug at time i.

[3] = set-up: method as in PMID 16869897, PMID 31284397; details: cited from earlier work
[4] = cited from earlier work
[5] = acid pH (0.1 M HCl, pH 1.2), 120 min
[6] = pH 6.8 phosphate buffer, 240 min

Structure (SMILES) | pseudo-first-order dissociation rate constant Kobs ([1]; pH 6.8 buffer) | amount of prodrug released from VHS [2, 5] | amount of prodrug released from VHS [2, 6] | octanol/water partition coefficient (logP o/w) [3] | water solubility [4] | pseudo-first-order dissociation rate constant Kobs ([1]; pH 7.4 buffer)
Cc1ccc(C(C)C)cc1OC(=O)CN [WSCP1] | 0.2982 (±0.0106) h^−1 | 38% | 65% |  |  | 
Cc1ccc(C(C)C)cc1O [carvacrol, 2-methyl-5-isopropylphenol] |  |  |  | 3.64 | 110 µg/mL (≈ 732 µM) | 
Cc1ccc(C(C)C)cc1OC(=O)[C@@H](C)N [WSCP2] | 0.9027 (±0.0042) h^−1 | 54% | 78% |  |  | 0.7878 (±0.0629) h^−1
Cc1ccc(C(C)C)cc1OC(=O)CCN [WSCP3] | 0.0381 (±0.0002) h^−1 | 45% | 44% |  |  | 0.0420 (±0.0006) h^−1
